# Assays:
# IL-4 [1] = experiment: ELISA of IL-4 in supernatant of EL-4 T lymphoma cells; format: cell-based, mouse; conditions: EL-4 cells
# Description: First, in an incubator containing 5 vol % of CO2 at 37° C., EL-4 mouse T lymphoma cells (commercially available from ATCC, Manassas, Va., America) were cultured in the DMEM culture medium (containing 10 wt % of thermally deactivated FBS), and were sub-cultured at a ratio of 1:3.
# (§1) Then, at a density of 5×10^5 counts/ml, the T lymphoma cells were bred in a six-well culture dish, and at the 0th minute, brazilin of different concentrations (0.3, 1, 3, 10, or 30 micromole (μM)) was added into the cell culture solution at an amount of 1 μl/ml-cell culture solution. Then, the cells were put into the incubator to be cultured therein. 30 minutes later, at an amount of 1 μl/ml-cell culture solution, 5 μg/ml PMA and cAMP at a 250 mmol concentration were added to the cell culture solution to stimulate the expression of IL-4 and IL-5 of the T lymphoma cells. During the process of cell culture, the trypan blue exclusion assay was employed to observe effect of the brazilin on the cell viability, results of which are shown in Table 1 and FIG. 1.
# At 4° C., the T lymphoma cells obtained from Experiment A were centrifugally rotated at a rotational speed of 1000 rpm and at 4° C. for 5 minutes, and the supernatant was collected and analyzed for cytokines.
# An enzyme-linked immunosorbent assay (ELISA) kit (commercially available from R&D Systems, Inc., America) was used to analyze the expression of IFN-γ, IL-4, IL-5, and eotaxin cytokines in the aforesaid supernatant, results of which are shown in Table 2, Table 3, FIG. 2, and FIG. 3.
# In Experiment B and the following Experiment C, all experimental data are presented in form of “mean±standard deviation”, and statistical discrepancy was analyzed by means of the One-way ANOVA and Newman-keuls post-hoc tests, in which it is considered that there is statistical discrepancy if p<0.05.
# [2] = tested on: macrophages, lymphocytes, eosinophils, and neutrophils in bronochial alveolar lavage fluid; experiment: Immunocyte counts in bronochial alveolar lavage fluid, mice with asthma (OVA); format: in vivo; conditions: OVA-sensitized BALB/c mice; for Number of eosinophils (×10^4) / Number of lymphocytes (×10^4) / Number of macrophages (×10^4) / Number of neutrophils (×10^4): i.p. or i.t., bronochial alveolar lavage fluid
# Description: (§2) In Example 2, mice with asthma were used to conduct in vivo experiments, and ovalbumin (OVA) was used as an allergen.
# (§3) The mice were sensitized (or challenged) according to the steps shown in FIG. 9 (see Lee et al., Lentiviral-mediated GATA-3 RNAi decreases allergic airway inflammation and hyperresponsiveness. Molecular Therapy, 2008; 16:60-65, which is incorporated herein in its entirety by reference). First, 50 μg OVA (using 2 mg alumina (Alum, Alumlmuject, Pierce Chemical, Rockford, Ill., USA) as an adjuvant) was injected into six to eight-week-old BALB/c female mice (from National Laboratory Animal Center, Taiwan) by intraperitoneal injection (i.p.). At 0th, 14th, and 28th day, the mice were injected with OVA at the same dosage. Before the administration of OVA at the forty-first and the forty-second days, different dosages of brazilin (high dose: 430 μg/mice; low dose: 43 μg/mice) were administrated to the mice by intraperitoneal injection (i.p.) or intratracheal instillation (i.t.). During the fortieth to the forty-second days, 100 μg OVA was dissolved in 40 μl PBS, and was administrated to the mice by intranasal instillation (i.n.) (once everyday, for three days). At the forty-third day, airway hyperresponsiveness of the mice was observed. At the forty-sixth day, the mice were sacrificed and used to conduct the following Experiments E to G During the above procedure, it was observed if any toxicity response arises after the administration of brazilin to the mice. In this experiment, the mice administrated with OVA were used as a positive control, and the mice not administrated with OVA were used as a negative control.
# In Experiment D, after 24 hours from the last administration of OVA into the noses of the mice, the mice were sacrificed, and the blood was collected from the orbital cavities of the mice. Then, a cannula was immediately inserted into the bronchi of the mice, and the lungs of the mice were washed with a 1 ml HBSS buffer solution containing no calcium and magnesium ions three times, and a bronochial alveolar lavage fluid is collected. The fluid was centrifuged at 4° C. and with a revolution speed of 400 g for 10 minutes. Cells obtained after the centrifugation were re-suspended in a 1 ml HBSS buffer solution, and the total cell number was counted with a hemocytometer.
# Then, the cells were fixed on a glass sheet in a way of cytocentrifuged preparations, and the Liu's stain (see Lee et al., Lentiviral-mediated GATA-3 RNAi decreases allergic airway inflammation and hyperresponsiveness. Molecular Therapy. 2008; 16:60-65, which is incorporated herein in its entirety by reference) was carried out to calculate the number of various kinds of cells. The cell number was calculated by counting the number of macrophages, lymphocytes, eosinophils, and neutrophils in 300 cells respectively. The cells were categorized according to their standard morphology, and the invasion of inflammatory cells into the lungs was observed.
# T-bet mRNA = experiment: Real-time PCR of T-bet mRNA in EL-4 T lymphoma cells; format: cell-based, mouse; conditions: for Expression level of T-bet mRNA: PMA + cAMP stimulated EL-4 cells, corrected to HPRT
# Description: as §1
# Expression of mRNA of IL-4, IL-5, GATA-3, c-maf, and T-bet were analyzed in a quantitative way through real-time polymerase chain reaction (PCR) by extracting RNA in the cells obtained in Experiment A (using an RNA purifying kit), converting the RNA into cDNA through reverse transcription, and using an ABI PRISM 7700 sequence detector (Applied Biosystems, Foster City, Calif., America) to analyze the gene expression of mRNA. The PCR was carried out under the following conditions: 50° C., 2 minutes; 95° C., 10 minutes; 60° C., 1 minute; then repeating this cycle forty times. A threshold cycle (or referred to as Ct) was used to represent the expression level of each gene, and an expression level of hypoxanthine-guanine phosphoribosy transferase (HPRT) genes of the endogenous control group was used for correction of the expression level of mRNA.
# IL-4 [3] = experiment: ELISA of IL-4 in bronochial alveolar lavage fluid, mice with asthma (OVA); format: in vivo, BALB/c mice; conditions: for IL-4 concentration (pico-gram/ml): i.p. or i.t., OVA-sensitized BALB/c mice
# Description: as §2
# as §3, with “At the forty-sixth day, the mice were sacrificed and used to conduct the following Experiments E to G During the above procedure, it was observed if any toxicity response arises after the administration of brazilin to the mice. In this experiment, the mice administrated with OVA were used as a positive control, and the mice not administrated with OVA were used as a negative control.” left out
# In Experiment D, after 24 hours from the last administration of OVA into the noses of the mice, the mice were sacrificed, and the blood was collected from the orbital cavities of the mice. […] Cells obtained after the centrifugation were re-suspended in a 1 ml HBSS buffer solution, and the total cell number was counted with a hemocytometer.
# The bronochial alveolar lavage fluid collected in Experiment E was centrifuged at 4° C. and with a revolution speed of 400 g for 10 minutes. After the supernatant was collected, the expression of eotaxin, IL-4, IL-5, and IFN-γ was analyzed with an ELISA kit (R&D Systems, Inc., USA). […]
smiles,measurement,setting,value
Oc1ccc2c(c1)OC[C@]1(O)Cc3cc(O)c(O)cc3[C@H]21 [brazilin],expression of protein of IL-4 cytokine,IL-4 [1]; result in words,inhibited
same,Concentration of IL-4 (pico-gram/ml),IL-4 [1]; brazilin 0.3 μM + PMA + cAMP,23.93 ± 2.214 pico-gram/ml
same,Concentration of IL-4 (pico-gram/ml),IL-4 [1]; brazilin 1 μM + PMA + cAMP,22.49 ± 1.969 pico-gram/ml
same,Concentration of IL-4 (pico-gram/ml),IL-4 [1]; brazilin 3 μM + PMA + cAMP,23.45 ± 2.693 pico-gram/ml
same,Concentration of IL-4 (pico-gram/ml),IL-4 [1]; brazilin 10 μM + PMA + cAMP,23.13 ± 2.297 pico-gram/ml
same,Concentration of IL-4 (pico-gram/ml),IL-4 [1]; brazilin 30 μM + PMA + cAMP,18.71 ± 1.206 pico-gram/ml
same,Number of eosinophils (×10^4),[2]; High dose (430 μg/mice),10.52 ± 4.543 ×10^4
same,Number of lymphocytes (×10^4),[2]; High dose (430 μg/mice),0.8106 ± 0.3015 ×10^4
same,Number of macrophages (×10^4),[2]; High dose (430 μg/mice),34.25 ± 4.970 ×10^4
same,Number of neutrophils (×10^4),[2]; High dose (430 μg/mice),0.2178 ± 0.1799 ×10^4
same,Number of eosinophils (×10^4),[2]; Low dose (43 μg/mice),21.39 ± 1.491 ×10^4
same,Number of lymphocytes (×10^4),[2]; Low dose (43 μg/mice),0.7421 ± 0.2902 ×10^4
same,Number of macrophages (×10^4),[2]; Low dose (43 μg/mice),41.67 ± 6.885 ×10^4
same,Number of neutrophils (×10^4),[2]; Low dose (43 μg/mice),0.6476 ± 0.2759 ×10^4
same,number of eosinophils in the lungs of the mice,[2]; result in words,decreased
same,expression of mRNA of transcription factor T-bet,"T-bet mRNA; EL-4 cells, result in words",did not inhibit
same,Expression level of T-bet mRNA,T-bet mRNA; brazilin 0.3 μM,1.073 ± 0.1762
same,Expression level of T-bet mRNA,T-bet mRNA; brazilin 1 μM,1.036 ± 0.1666
same,Expression level of T-bet mRNA,T-bet mRNA; brazilin 3 μM,1.052 ± 0.09226
same,Expression level of T-bet mRNA,T-bet mRNA; brazilin 10 μM,1.068 ± 0.1171
same,Expression level of T-bet mRNA,T-bet mRNA; brazilin 30 μM,1.054 ± 0.05147
same,production of IL-4 cytokine,"IL-4 [3]; BALB/c mice, result in words",inhibited
same,IL-4 concentration (pico-gram/ml),IL-4 [3]; High dose (430 μg/mice),23.01 ± 2.327 pico-gram/ml
same,IL-4 concentration (pico-gram/ml),IL-4 [3]; Low dose (43 μg/mice),36.76 ± 5.490 pico-gram/ml

# — patent publication US8796327B2, “Method for inhibiting production of cytokines of T helper cell type II and/or inhibiting production of chemokines using brazilin” (China Medical University, priority 2010, dated 2014)
